Reference: patent US10745387B2, “Crystalline form of (2S,3S,6S,7R,10R,E)-7,10-dihydroxy-3,7-dimethyl-12-oxo-2-((R,2E,4E)-6-(piridin-2-yl)hepta-2,4-dien-2-yl)oxacyclododec-4-en-6-yl-4-methylpiperazine-1-carboxylate and methods of use thereof” (EISAI R&D MANAGEMENT CO., LTD., priority 2015, dated 2020)

Tests used:
[1] = test system: WiDr-R cells (SF3B1 R1074H mutation); assay: Cell viability assay, resistant WiDr-R counter-screen; type: cell-based; conditions: 72 hr, ATP (CellTiter-Glo)
[2] = test system: Panc 05.04 (mt SF3B1 cells); assay: Cell viability assay (CellTiter-Glo), Panc 05.04; type: cell-based; conditions: 72 hr
Experimental: (§1) Cells (WiDr and Panc05.04 obtained from ATCC) were seeded in 96-well plates, with 2000 cells/1004/well, and incubated overnight. Spent media was removed, and fresh, media containing 9 different concentrations of compound (1004/well) were added, with DMSO concentration from compound stock solution adjusted to be 0.1%. Each compound treatment was done in duplicate or triplicate at each concentration.
(§2) Another plate with cells seeded was dedicated as a time zero (Tz) plate, to which was added 0.1% DMSO in media (1004/well) followed by CellTiter-Glo® reagent (Promega Corporation, Madison, Wis.) (504/well) for ATP measurement as a surrogate of cell viability. Average value from measurement of multiple wells of this plate is used as Tz.
(§3) Compound-treated plates were incubated for 72 hr at 37° C. Then, CellTiter-Glo® reagent (504/well) was added and ATP was measured. […]
(§4) Percentage growth inhibition/Percentage viability was calculated as: [(Ti−Tz)/(C−Tz)]×100 for concentrations for which Ti>/=Tz [(Ti−Tz)/Tz]×100 for concentrations for which Ti<Tz. *time zero (Tz), control growth (C), and test growth in the presence of compound (Ti) Percentage growth inhibition/Percentage viability are plotted versus compound concentration to determine Emax. […]

[3] = test system: WiDr cells (wildtype SF3B1); assay: Cell viability assay (CellTiter-Glo), WiDr; type: cell-based; conditions: Homo sapiens, 72 hr, ATP (CellTiter-Glo)
Experimental: as §1, §2, §3, §4

[4] = test system: splicing of Ad2 pre-mRNA in HeLa nuclear extract; assay: In vitro splicing (IVS) biochemical assay; conditions: 90 min, 30° C.
Experimental: Biotin-labeled pre-mRNA of an adenovirus type 2 construct with a deletion of intervening sequence (Ad2) (Berg, M. G., et al. 2012 Mol. Cell Bio., 32(7):1271-83) was prepared by in vitro transcription. The Ad2 construct containing Exon 1 (41 nucleotides), Intron (231 nucleotides), and Exon 2 (72 nucleotides) was generated by gene synthesis and cloned into the EcoRI and XbaI sites of pGEM®-3Z vector (Promega) by Genewiz® (South Plainfield, N.J.). The plasmid was then linearized by XbaI digestion and purified. In vitro transcription and purification of transcribed pre-mRNA were performed using the MEGAscript® T7 transcription kit (Invitrogen™, Life Technologies™, Grand Island, N.Y.) and MEGAclear™ transcription clean-up kit (Invitrogen™, Life Technologies™, Grand Island, N.Y.), respectively, following the manufacturer's instructions. […]
In vitro splicing assay was performed at 30° C. in 254 reaction mixtures containing 95 μg HeLa nuclear extract (Promega Corporation, Madison, Wis.), 47 nM Ad2 pre-mRNA, 25U RNasin RNase inhibitor (Promega Corporation, Madison, Wis.), 1×SP buffer (0.5 mM ATP, 20 mM creatine phosphate, 1.6 mM MgCl2), and compounds in DMSO (with 1% final concentration of DMSO). […] The amount of spliced RNA was quantified by measuring the band fluorescent intensity using LI-COR Image Studio software. […]

[5] = test system: WiDr-R cells (SF3B1 R1074H mutation); conditions: cited from earlier work
[6] = Solid state stability study; type: physicochemical
Experimental: Solid state stability studies were carried out on crystalline Form 1 under the following conditions: • Stored at 25° C. for 7 and 14 days • Stored at 40° C./75% RH (open) for 7 and 14 days • Stored at 60° C. for 7 and 14 days

C/C(=C\C=C\[C@@H](C)c1ccccn1)[C@H]1OC(=O)C[C@H](O)CC[C@@](C)(O)[C@@H](OC(=O)N2CCN(C)CC2)/C=C/[C@@H]1C [Compound 1, (2S,3S,6S,7R,10R,E)-7,10-dihydroxy-3,7-dimethyl-12-oxo-2-((R,2E,4E)-6-(pyridin-2-yl)hepta-2,4-dien-2-yl)oxacyclododec-4-en-6-yl 4-methylpiperazine-1-carboxylate]
GI50 [1]: > 1000 nM
GI50 ([2]; ATP (CellTiter-Glo)): 32.7 nM
Emax ([2]; negative value indicates cellular lethality): -66.1%
GI50 [3]: 31.8 nM
IC50 [4]: 1330 nM

CCC(O)C(C)C1OC1CC(C)(O)/C=C/C=C(\C)C1OC(=O)CC(O)CCC(C)(O)C(OC(=O)N2CCN(C3CCCCCC3)CC2)/C=C/C1C (stereo not drawn) [Compound E7107, (8E,12E,14E)-7-((4-cycloheptylpiperazin-1-yl)carbonyl)oxy-3,6,16,21-tetrahydroxy-6,10,12,16,20-pentamethyl-18,19-epoxytricosa-8,12,14-trien-11-olide]
Growth inhibition in WiDr-R cells (resistance) [5]: resistant

C/C(=C\C=C\[C@@H](C)c1ccccn1)[C@H]1OC(=O)C[C@H](O)CC[C@@](C)(O)[C@@H](OC(=O)N2CCN(C)CC2)/C=C/[C@@H]1C [crystalline Form 1, (2S,3S,6S,7R,10R,E)-7,10-dihydroxy-3,7-dimethyl-12-oxo-2-((R,2E,4E)-6-(pyridin-2-yl)hepta-2,4-dien-2-yl)oxacyclododec-4-en-6-yl 4-methylpiperazine-1-carboxylate]
Degradation on storage (solid state stability) ([6]; 25° C., 40° C./75% RH (open), 60° C., each for 7 and 14 days): No significant degradation
Change in crystallinity (XRPD and TGA-DSC) ([6]; 40° C./75% RH (open) for 14 days): no change in crystallinity

pladienolide B
Growth inhibition in WiDr-R cells (resistance) [5]: resistant
